This is an account of results in the C3SDB collision cross section collection.

For data set [1] the following is noted: [M+H]+; instrument: TW.
The conditions of data set [2]: instrument: DT, stepped-field.
The conditions of data set [3]: instrument: DT, single field, calibrated with Agilent tune mix (Agilent).

For the molecule `CC(Oc1ccc(Oc2ncc(C(F)(F)F)cc2Cl)cc1)C(=O)O` (centres undefined) [Haloxyfop], the “collision cross section (N2)” value in data set [1] was found to be 179.86 Å².

Consider `COP(=O)(OC)OC1=C(Cl)C2C=CCC12` (centres undefined) [Heptenophos], for which the “collision cross section (N2)” value in data set [1] came out at 144.04 Å². Same read-out and setting: in the case of `CCCCC(O)(Cn1cncn1)c1ccc(Cl)cc1Cl` (centres undefined) [Hexaconazole] it was 171.26 Å²; in that of `CC(C(=O)O)c1ccc(N2Cc3ccccc3C2=O)cc1` (centres undefined) [Indoprofen], 166.4 Å²; in that of `CC(C)c1ncc([N+](=O)[O-])n1C` [Ipronidazole], 126.1 Å². In the case of `CCCCCCCC/C=C\CCCCCCCC(=O)OC[C@@H](O)COP(=O)(O)O` [LPA(18:1)], the “collision cross section (N2)” value in data set [2] ([M-H]-) was 198.8 Å². Turning to `CCCCCC/C=C\CCCCCCCC(=O)OC[C@@H](O)COP(=O)(O)OCCN` [LPE(16:1)], the entries for the “collision cross section (N2)” value in data set [2] ([M-H]-) and in data set [3] ([M-H]-) were 201.1 Å² and 203.8 Å², respectively.

With `CCCCCCCCCCCCCCCC(=O)OC[C@@H](O)COP(=O)(O)OC[C@@H](O)CO` [LPG(16:0)], the “collision cross section (N2)” value in data set [2] ([M-H]-) is on record as 214.3 Å². On the same count and under the same terms, the figure for `CCCCCC/C=C\CCCCCCCC(=O)OC[C@@H](O)COP(=O)(O)OC[C@@H](O)CO` [LPG(16:1)] is 212 Å². For the molecule `CCCCCCCCCCCCCCCC(=O)OC[C@@H](O)COP(=O)(O)O[C@H]1C(O)C(O)C(O)[C@@H](O)C1O` (some centres undefined) [LPI(16:0)], the “collision cross section (N2)” value in data set [2] ([M-H]-) worked out at 228.7 Å²; in data set [3] ([M-H]-) it was 229.1 Å². For the molecule `c1ccc([C@H]2CN3CCSC3=N2)cc1` [Levamisole], in data set [1], the “collision cross section (N2)” value worked out at 138.2 Å².

Turning to `CON(C)C(=O)Nc1ccc(Cl)c(Cl)c1` [Linuron], in data set [1], the “collision cross section (N2)” value is 149.63 Å². Still for that read-out and setting: the figure for `CC#Cc1cc(C)nc(Nc2ccccc2)n1` [Mepanipyrim] is 152.07 Å²; for `CS(=O)(=O)c1ccc(C(=O)C2C(=O)CCCC2=O)c([N+](=O)[O-])c1` [Mesotrione] it is 175.66 Å².

For the molecule `COCC(=O)N(c1c(C)cccc1C)C(C)C(=O)OC` (centres undefined) [Metalaxyl], in data set [1], the “collision cross section (N2)” value came out at 159.96 Å². For the molecule `COc1ccc2cc([C@H](C)C(=O)O)ccc2c1` [Naproxen], the “collision cross section (N2)” value in data set [1] is on record as 147.1 Å². For the molecule `O=C(O)c1cccnc1Nc1cccc(C(F)(F)F)c1` [Niflumic acid], the “collision cross section (N2)” value in data set [1] worked out at 156.8 Å². For `CCN(Cc1ccc(Cl)nc1)/C(=C/[N+](=O)[O-])NC` [Nitenpyram], the “collision cross section (N2)” value in data set [1] turned out to be 160.32 Å².

As for `CCCCCCCC/C=C\CCCCCCCCCC(=O)O[C@H](COC(=O)CCCCCCCCCCC)COP(=O)(O)O` [PA(16:0/16:1)], the “collision cross section (N2)” value in data set [2] ([M-H]-) is recorded as 251.8 Å². The same measure, in the same setting: the figure for `CCCCCCCCCC/C=C\CCCCCCCCCC(=O)O[C@H](COC(=O)CCCCCCCCCCCCC)COP(=O)(O)O` [PA(18:0/18:1)] is 268 Å²; for `CCCCC/C=C\C/C=C\CCCCCCCCCCCC(=O)O[C@H](COC(=O)CCCCCCCCCCCCC)COP(=O)(O)O` [PA(18:1/18:1)] it is 264 Å².

Regarding `CCCCC/C=C\C/C=C\C/C=C\CCCCCCC(=O)O[C@H](COCCCCCCCCCCCCCCCC)COP(=O)([O-])OCC[N+](C)(C)C` [PC(o36:3)], the “collision cross section (N2)” value in data set [2] ([M+H]+) came out at 301 Å². Consider `CC/C=C\C/C=C\C/C=C\C/C=C\C/C=C\CCCC(=O)O[C@H](COCCCCCCCCCCCCCCCC)COP(=O)([O-])OCC[N+](C)(C)C` [PC(o36:5)], for which the “collision cross section (N2)” value in data set [2] ([M+H]+) worked out at 293.8 Å². Still for that read-out and setting: the figure for `CCCCC/C=C\C/C=C\CCCCCCCC(=O)O[C@H](COC(=O)CCCCCCCCCCCCCCC)COP(=O)(O)OCCN` [PE(16:1/18:1)] is 283.8 Å²; for `CCCCC/C=C\C/C=C\C/C=C\CCCCCCC(=O)O[C@H](COCCCCCCCCCCCCCCCCCC)COP(=O)(O)OCCN` [PE(o38:3)] it is 297.6 Å². As for `CCCC/C=C\CCCCCCCC(=O)OC[C@H](COP(=O)(O)OC[C@@H](O)CO)OC(=O)CCCCCCC/C=C\CCCCCCCC` [PG(16:1/16:1)], in data set [2] ([M-H]-), the “collision cross section (N2)” value is 267.1 Å². Still for that read-out and setting: in the case of `CCCCCCCCCCCCCCCC(=O)OC[C@H](COP(=O)(O)O[C@H]1C(O)C(O)C(O)[C@@H](O)C1O)OC(=O)CCCCCCCCCCC` (some centres undefined) [PI(12:0/16:0)] it was 273.5 Å². Regarding `CCCCCCC/C=C\CCCCCCCC(=O)O[C@H](COC(=O)CCCCCCCCCCCC)COP(=O)(O)O[C@H]1C(O)C(O)C(O)[C@@H](O)C1O` (some centres undefined) [PI(14:0/16:1)], in data set [2] ([M-H]-), the “collision cross section (N2)” value was 278.4 Å². Still for that read-out and setting: the figure for `CCCCC/C=C\C/C=C\CCCCCCCCCCCC(=O)O[C@H](COC(=O)CCCCCCCCCCC)COP(=O)(O)O[C@H]1C(O)C(O)C(O)[C@@H](O)C1O` (some centres undefined) [PI(16:1/18:1)] is 289.2 Å²; for `CCCCC/C=C\C/C=C\CCCCCCCCCCCC(=O)O[C@H](COC(=O)CCCCCCCCCCC)COP(=O)(O)OC[C@H](N)C(=O)O` [PS(16:1/18:1)] it is 276.9 Å². On to `CCCCCCCCCC/C=C\CCCCCCCCCC(=O)O[C@H](COC(=O)CCCCCCCCCCCCCCC)COP(=O)(O)OC[C@H](N)C(=O)O` [PS(38:1)], for which the results for the “collision cross section (N2)” value in data set [2] ([M-H]-) and in data set [3] ([M+H]+) were 296.1 Å² and 292.9 Å², respectively. On to `CCCCCCCCCC/C=C\CCCCCCCCCC(=O)O[C@H](COC(=O)CCCCCCCCCCCCCCCCC)COP(=O)(O)OC[C@H](N)C(=O)O` [PS(40:1)], for which the “collision cross section (N2)” value in data set [2] ([M-H]-) was 302.2 Å². Consider `CO/C=C(/C(=O)OC)c1ccccc1COc1cccc(C(F)(F)F)n1` [Picoxystrobin], for which the “collision cross section (N2)” value in data set [1] came to 177.5 Å². For the molecule `C[C@]12C=CC(=O)C=C1CC[C@@H]1[C@@H]2C(=O)C[C@@]2(C)[C@H]1CC[C@]2(O)C(=O)CO` [Prednisone], in data set [1], the “collision cross section (N2)” value is reported as 180.1 Å².

As to `CC1=NNC(=O)N(/N=C/c2cccnc2)C1` [Pymetrozine], the “collision cross section (N2)” value in data set [1] is on record as 150.71 Å². In the case of `CCCCCCCCSC(=O)Oc1cc(Cl)nnc1-c1ccccc1` [Pyridate], in data set [1], the “collision cross section (N2)” value worked out at 199.9 Å².

For `O=C(O)c1c(Cl)ccc2cc(Cl)cnc12` [Quinclorac], the “collision cross section (N2)” value in data set [1] is listed as 139.54 Å². Still for that read-out and setting: the figure for `C=C1C[C@@]23CC[C@H]4[C@@](C)(CCC[C@@]4(C)C(=O)O)[C@@H]2CC[C@]1(O[C@@H]1O[C@H](CO)[C@@H](O)[C@H](O[C@@H]2O[C@H](CO)[C@@H](O)[C@H](O)[C@H]2O)[C@H]1O[C@@H]1O[C@H](CO)[C@@H](O)[C@H](O)[C@H]1O)C3` [Rebaudioside B] is 261.19 Å². Still for that read-out and setting: in the case of `C=C1C[C@@]23CC[C@H]4[C@@](C)(CCC[C@@]4(C)C(=O)O[C@@H]4O[C@H](CO)[C@@H](O)[C@H](O)[C@H]4O)[C@@H]2CC[C@]1(O[C@@H]1O[C@H](CO)[C@@H](O)[C@H](O[C@@H]2O[C@H](CO)[C@@H](O)[C@H](O)[C@H]2O)[C@H]1O[C@@H]1O[C@@H](C)[C@H](O)[C@@H](O)[C@H]1O)C3` [Rebaudioside C] it was 299.49 Å²; in that of `C=C1C[C@@]23CC[C@H]4[C@@](C)(CCC[C@@]4(C)C(=O)O[C@@H]4O[C@H](CO)[C@@H](O)[C@H](O)[C@H]4O[C@@H]4O[C@H](CO)[C@@H](O)[C@H](O)[C@H]4O)[C@@H]2CC[C@]1(O[C@@H]1O[C@H](CO)[C@@H](O)[C@H](O)[C@H]1O[C@@H]1O[C@H](CO)[C@@H](O)[C@H](O)[C@H]1O)C3` [Rebaudioside E], 289.2 Å². In the case of `C=C1C[C@@]23CC[C@H]4[C@@](C)(CCC[C@@]4(C)C(=O)O[C@@H]4O[C@H](CO)[C@@H](O)[C@H](O)[C@H]4O)[C@@H]2CC[C@]1(O[C@@H]1O[C@H](CO)[C@@H](O)[C@H](O[C@@H]2O[C@H](CO)[C@@H](O)[C@H](O)[C@H]2O)[C@H]1O[C@@H]1OC[C@@H](O)[C@H](O)[C@H]1O)C3` [Rebaudioside F], the “collision cross section (N2)” value in data set [1] is listed as 293.18 Å². Still for that read-out and setting: in the case of `C=C1C[C@@]23CC[C@H]4[C@@](C)(CCC[C@@]4(C)C(=O)O[C@@H]4O[C@H](CO)[C@@H](O)[C@H](O)[C@H]4O)[C@@H]2CC[C@]1(O[C@@H]1O[C@H](CO)[C@@H](O)[C@H](O)[C@H]1O)C3` [Rubusoside] it was 241.31 Å².

`C=C1C[C@@]23CC[C@H]4[C@@](C)(CCC[C@@]4(C)C(=O)O[C@@H]4O[C@H](CO)[C@@H](O)[C@H](O)[C@H]4O)[C@@H]2CC[C@]1(O[C@@H]1O[C@H](CO)[C@@H](O)[C@H](O)[C@H]1O[C@@H]1O[C@H](CO)[C@@H](O)[C@H](O)[C@H]1O)C3` [Stevioside]: the “collision cross section (N2)” value in data set [1] is reported as 269.64 Å². As to `COc1cc(NS(=O)(=O)c2ccc(N)cc2)nc(OC)n1` [Sulfadimethoxine], the “collision cross section (N2)” value in data set [1] was determined as 166 Å². Same read-out and setting: the figure for `Nc1ccc(S(=O)(=O)Nc2nccs2)cc1` [Sulfathiazole] is 148.2 Å². Same read-out and setting: the figure for `CC(C)(C)C(O)(CCc1ccc(Cl)cc1)Cn1cncn1` (centres undefined) [Tebuconazole] is 167.37 Å²; for `CCOP(=S)(OCC)SCS(=O)(=O)C(C)(C)C` [Terbufos-sulfone] it is 172.88 Å²; for `CCNc1nc(Cl)nc(NC(C)(C)C)n1` [Terbuthylazine] it is 153.48 Å². Turning to `N#C/N=C1\SCCN1Cc1ccc(Cl)nc1` [Thiacloprid], the “collision cross section (N2)” value in data set [1] turned out to be 154.84 Å².

In the case of `COC(=O)NC(=S)Nc1ccccc1NC(=S)NC(=O)OC` [Thiophanate-methyl], the “collision cross section (N2)” value in data set [1] stood at 174.24 Å². As to `CCCNC[C@]1(O)[C@H](C)O[C@@H](O[C@H]2[C@H](C)[C@@H](O[C@@H]3O[C@H](C)C[C@H](N(C)C)[C@H]3O)[C@](C)(O)C[C@@H](C)CN[C@H](C)[C@@H](O)[C@](C)(O)[C@@H](CC)OC(=O)[C@@H]2C)C[C@@]1(C)OC` [Tulathromycin], the “collision cross section (N2)” value in data set [1] is given as 286.4 Å².
